# Data: publication PMC4368200, “Triclabendazole Sulfoxide Causes Stage-Dependent Embryolethality in Zebrafish and Mouse In Vitro” (PLoS ONE, 2015)
# Several values for one entry are separate records, joined by “and”; a condition that tells them apart may be missing. Equal entries are not always repeated. Where two headings read alike, the source gives them in different places. Marks after values point to notes of the source that are not given here.
# Columns and labels:
# [1] = system: rat embryos explanted at GD 9.5; assay: Postimplantation whole embryo culture (postWEC); parameters: species or system Sprague Dawley rats; key to Yolk sac circulation (median): 1 = few/abnormal vessels, 2 = delayed, 3 = complete vascularization; key to Morphological score: sum of structure scores; higher = more advanced differentiation; conditions: for Crown-rump length / Dysmorphogenic embryos / Morphological score / Somites number / Yolk sac circulation (median): 48 h; for postWEC LOAEC: GD 9.5-11.5, 48 h
# Method: Nulliparous female rats, which were checked to be in the oestrus phase of the oestrous cycle, were housed with adult males (1:1) for 4 h, considering 2 h of light and 2 h of darkness. Mating was confirmed by the presence of sperm in vaginal smear, and the following 24 h were considered as gestational day 0 (GD 0).
# Rat embryos were explanted and evaluated as described before with some variations. Briefly, embryos were explanted at GD 9.5 under sterile conditions. Two embryos were incorporated in flasks filled with 3.5 mL of culture medium which contained 20% of rat serum and 80% of serum mixture (Biochrom AG; Berlin, Germany). TCBZ, TCBZSO, ABZ and ABZSO were dissolved in dimethyl sulfoxide (DMSO; Sigma Aldrich Spain) and added to the culture medium to a final DMSO concentration of 0.1%. Culture flasks were oxygenated at the beginning of the culture with a gas mixture containing 12% O2 and after 38 h with a gas mixture containing 50% O2. Embryos were cultured at a temperature of 38°C, under rotation at a speed of 25 rpm (Noria R, Ovan Spain) for 48 h. After this period, embryos presenting yolk sac circulation and heartbeat were considered alive and were selected for further evaluation. The yolk sac circulation was evaluated according to the level of formation of blood vessels, giving a score of 1 in the cases in which few vessels were observed or the vascularization was abnormal, a score of 2 when a delay in vascularization was observed and 3 for complete vascularization, as previously described in [35]. Growth evaluation was assessed by crown-rump length and differentiation was evaluated by counting the number of somites and the morphological score. This score is the sum of the scores given to several embryonic structures depending on their differentiation stage, corresponding higher values with higher stages of differentiation. Furthermore, the percentage of dysmorphogenesis was calculated according to [36].
# For the postWEC experiments, the selected concentrations were 140 μM, 278 μM and 556 μM for TCBZ and 267 μM, 666 μM and 932 μM for TCBZSO. The tested concentrations for ABZ analysis were 0.4 μM, 1.1 μM and 1.9 μM and for ABZSO were 3.4 μM, 9 μM, 12 μM, 14 μM and 16 μM.
# zebrafish embryos [2] = assay: Zebrafish embryo test (ZFET); assay type: in vivo, Danio rerio; conditions: for Lethality / ZFET LOAEC dysmorphogenesis / ZFET LOAEC lethality: 2-50 hpf; for Dysmorphogenic embryos / Morphological score: 50 hpf
# Method: The day before the test, adult male and female zebrafish were transferred (1:1) to breeding tanks (Aquaneering, San Diego, California). Artificial plants and marbles were used as spawning substrate. Spawning and fertilization took place within 30 min after the onset of light in the morning. Eggs were collected and extensively cleaned with ISO-standard 7346 water diluted 1:5 using deionized water. Fertilized eggs were selected under a dissection stereomicroscope (Motic SMZ168, Motic China group, LTD., China). The eggs presenting overt anomalies like asymmetries, formation of vesicles or damaged membranes were discarded.
# Exposure and evaluation of eggs was performed as described before with slight variations. At 2 hours post-fertilization (hpf) fertilized eggs were selected and transferred to 6-well plates (Greiner Bio-one, Germany). Ten embryos were randomly distributed into wells and filled with 5 mL of freshly prepared test solutions. TCBZ, TCBZSO, ABZ and ABZSO were dissolved in DMSO and subsequently diluted in 0.3x Danieau’s buffer to a final DMSO concentration of 0.05% (v/v). Embryos were incubated at 26 ± 1°C with a dark-light cycle of 10–14 h for 48 h. Embryolethality was determined at 8 hpf on the basis of egg coagulation, at 26 hpf by the absence of tail detachment or somites formation, and at 50 hpf by the absence of heartbeat. Developmental and teratogenic effects were assessed at 50 hpf by the total morphological score described in [32].
# The working concentrations for ZFET experiments were 0.1 μM, 0.5 μM, 1 μM, 2.5 μM and 5 μM for TCBZ studies and 0.5 μM, 1 μM, 2.5 μM, 5 μM, 10 μM and 50 μM for TCBZSO. The experiments with ABZ were performed including concentrations of 0.025 μM, 0.05 μM, 0.1 μM, 0.3 μM and 0.5 μM and for ABZSO they included 1 μM, 6 μM, 12 μM, 25 μM and 50 μM.
# rat whole embryo culture = system: rat whole embryo culture; parameters: method as in PMID 22652462; conditions: ref 16; cited from earlier work
# zebrafish embryos [3] = conditions: cited from earlier work
# [4] = cited from earlier work
compound,measurement,setting,value
"CCCSc1ccc2nc(NC(=O)OC)[nH]c2c1 [ABZ, methyl-5-(propylthio)-2-benzimidazole-carbamate]",Crown-rump length,[1]; 0.4 μM,3.5 ± 0.1 mm
same,Dysmorphogenic embryos,[1]; 0.4 μM,0%
same,Morphological score,[1]; 0.4 μM,38.9 ± 0.6
same,Somites number,[1]; 0.4 μM,25.8 ± 1.9
same,Yolk sac circulation (median),[1]; 0.4 μM,3.0
same,Frequency of dysmorphogenesis: Branchial bars,[1]; 1.1 µM,50%
same,Frequency of dysmorphogenesis: Heart,[1]; 1.1 µM,12.5%
same,Frequency of dysmorphogenesis: Subcutaneous blisters,[1]; 1.1 µM,50%
same,Frequency of dysmorphogenesis: Yolk sac,[1]; 1.1 µM,25%
same,Crown-rump length,[1]; 1.1 μM,3.2 ± 0.2 mm
same,Dysmorphogenic embryos,[1]; 1.1 μM,50 ^* %
same,Morphological score,[1]; 1.1 μM,30.8 ± 2.1
same,Somites number,[1]; 1.1 μM,23.9 ± 1.1
same,Yolk sac circulation (median),[1]; 1.1 μM,3.0
same,Frequency of dysmorphogenesis: Branchial bars,[1]; 1.9 µM,100%
same,Frequency of dysmorphogenesis: Caudal part,[1]; 1.9 µM,37.5%
same,Frequency of dysmorphogenesis: Flexion,[1]; 1.9 µM,12.5%
same,Frequency of dysmorphogenesis: Head,[1]; 1.9 µM,62.5%
same,Frequency of dysmorphogenesis: Heart,[1]; 1.9 µM,37.5%
same,Frequency of dysmorphogenesis: Subcutaneous blisters,[1]; 1.9 µM,37.5%
same,Frequency of dysmorphogenesis: Yolk sac,[1]; 1.9 µM,75%
same,Crown-rump length,[1]; 1.9 μM,2.9 ± 0.4 mm
same,Dysmorphogenic embryos,[1]; 1.9 μM,100 ^* %
same,Morphological score,[1]; 1.9 μM,26.4 ± 5.2
same,Somites number,[1]; 1.9 μM,21.9 ± 4.5
same,Yolk sac circulation (median),[1]; 1.9 μM,1.0 ^*
same,postWEC LOAEC,[1],1.1 µM
same,Lethality,zebrafish embryos [2]; 0.025 μM,7%
same,Dysmorphogenic embryos,zebrafish embryos [2]; 0.025 μM,0%
same,Morphological score,zebrafish embryos [2]; 0.025 μM,36.0 ± 0.0
same,Frequency of dysmorphogenesis: Cardiac oedema,zebrafish embryos [2]; 0.05 µM,3.3%
same,Lethality,zebrafish embryos [2]; 0.05 μM,0%
same,Dysmorphogenic embryos,zebrafish embryos [2]; 0.05 μM,3.3%
same,Morphological score,zebrafish embryos [2]; 0.05 μM,35.9 ± 0.2
same,Frequency of dysmorphogenesis: Cardiac oedema,zebrafish embryos [2]; 0.1 µM,2.5%
same,Lethality,zebrafish embryos [2]; 0.1 μM,0%
same,Dysmorphogenic embryos,zebrafish embryos [2]; 0.1 μM,2.5%
same,Morphological score,zebrafish embryos [2]; 0.1 μM,35.9 ± 0.2
same,Frequency of dysmorphogenesis: Cardiac oedema,zebrafish embryos [2]; 0.3 µM,72%
same,Frequency of dysmorphogenesis: Developmental delay,zebrafish embryos [2]; 0.3 µM,72%
same,Frequency of dysmorphogenesis: Eye pigmentation,zebrafish embryos [2]; 0.3 µM,16%
same,Frequency of dysmorphogenesis: Head-body pigmentation,zebrafish embryos [2]; 0.3 µM,40%
same,Frequency of dysmorphogenesis: Movement,zebrafish embryos [2]; 0.3 µM,32%
same,Lethality,zebrafish embryos [2]; 0.3 μM,17 ^* %
same,Dysmorphogenic embryos,zebrafish embryos [2]; 0.3 μM,72 ^* %
same,Morphological score,zebrafish embryos [2]; 0.3 μM,25.5 ± 2.1
same,Lethality,zebrafish embryos [2]; 0.5 μM,100% and 100 ^* %
same,ZFET LOAEC dysmorphogenesis,zebrafish embryos [2],0.3 µM
same,ZFET LOAEC lethality,zebrafish embryos [2],0.3 µM
same,"postWEC LOAEC, in vitro literature",rat whole embryo culture,3.7 [16] μM
same,"ZFET LOAEC, in vitro literature","zebrafish embryos [3]; ref 19, 20","0.3 [19, 20] μM"
same,Plasma concentrations at teratogenic doses,[4]; reviewed and transformed to μM by 13,0.94 ([47]; reviewed and transformed to μM by [13])
"CCC[S+]([O-])c1ccc2[nH]c(NC(=O)OC)nc2c1 (centres unmarked) [ABZSO, albendazole sulfoxide]",Crown-rump length,[1]; 3.4 μM,3.6 ± 0.2 mm
same,Morphological score,[1]; 3.4 μM,38.5 ± 2.1
same,Somites number,[1]; 3.4 μM,26.9 ± 1.6
same,Yolk sac circulation (median),[1]; 3.4 μM,3.0
same,Frequency of dysmorphogenesis: Branchial bars,[1]; 9 µM,23.1%
same,Frequency of dysmorphogenesis: Caudal part,[1]; 9 µM,7.7%
same,Frequency of dysmorphogenesis: Flexion,[1]; 9 µM,7.7%
same,Frequency of dysmorphogenesis: Heart,[1]; 9 µM,7.7%
same,Frequency of dysmorphogenesis: Subcutaneous blisters,[1]; 9 µM,30.8%
same,Frequency of dysmorphogenesis: Yolk sac,[1]; 9 µM,7.7%
same,Crown-rump length,[1]; 9 μM,3.4 ± 0.3 mm
same,Dysmorphogenic embryos,[1]; 9 μM,30.8 ^* %
same,Morphological score,[1]; 9 μM,35.8 ± 5.2
same,Somites number,[1]; 9 μM,25.0 ± 2.8
same,Yolk sac circulation (median),[1]; 9 μM,3.0
same,Frequency of dysmorphogenesis: Branchial bars,[1]; 12 µM,10%
same,Frequency of dysmorphogenesis: Head,[1]; 12 µM,40%
same,Frequency of dysmorphogenesis: Subcutaneous blisters,[1]; 12 µM,40%
same,Crown-rump length,[1]; 12 μM,3.6 ± 0.2 mm
same,Dysmorphogenic embryos,[1]; 12 μM,40 ^* %
same,Morphological score,[1]; 12 μM,38.6 ± 1.2
same,Somites number,[1]; 12 μM,25.5 ± 2.0
same,Yolk sac circulation (median),[1]; 12 μM,3.0
same,Frequency of dysmorphogenesis: Branchial bars,[1]; 14 µM,63.6%
same,Frequency of dysmorphogenesis: Caudal part,[1]; 14 µM,36.4%
same,Frequency of dysmorphogenesis: Flexion,[1]; 14 µM,9.1%
same,Frequency of dysmorphogenesis: Head,[1]; 14 µM,36.4%
same,Frequency of dysmorphogenesis: Optic vesicles,[1]; 14 µM,9.1%
same,Frequency of dysmorphogenesis: Otic vesicles,[1]; 14 µM,36.4%
same,Frequency of dysmorphogenesis: Subcutaneous blisters,[1]; 14 µM,54.5%
same,Frequency of dysmorphogenesis: Yolk sac,[1]; 14 µM,18.2%
same,Crown-rump length,[1]; 14 μM,3.4 ± 0.2 mm
same,Dysmorphogenic embryos,[1]; 14 μM,72.7 ^* %
same,Morphological score,[1]; 14 μM,29.7 ± 6.6
same,Somites number,[1]; 14 μM,22.9 ± 1.6
same,Yolk sac circulation (median),[1]; 14 μM,2.0 ^*
same,Frequency of dysmorphogenesis: Branchial bars,[1]; 16 µM,100%
same,Frequency of dysmorphogenesis: Caudal part,[1]; 16 µM,72.7%
same,Frequency of dysmorphogenesis: Flexion,[1]; 16 µM,63.6%
same,Frequency of dysmorphogenesis: Head,[1]; 16 µM,72.7%
same,Frequency of dysmorphogenesis: Heart,[1]; 16 µM,45.5%
same,Frequency of dysmorphogenesis: Limbs,[1]; 16 µM,18.2%
same,Frequency of dysmorphogenesis: Optic vesicles,[1]; 16 µM,27.3%
same,Frequency of dysmorphogenesis: Otic vesicles,[1]; 16 µM,45.5%
same,Frequency of dysmorphogenesis: Subcutaneous blisters,[1]; 16 µM,45.5%
same,Frequency of dysmorphogenesis: Yolk sac,[1]; 16 µM,63.6%
same,Crown-rump length,[1]; 16 μM,3.1 ± 0.6 mm
same,Dysmorphogenic embryos,[1]; 16 μM,100 ^* %
same,Morphological score,[1]; 16 μM,21.8 ± 6.7
same,Somites number,[1]; 16 μM,19.3 ± 2.4
same,Yolk sac circulation (median),[1]; 16 μM,1.0 ^*
same,postWEC LOAEC,[1],9 µM
same,Lethality,zebrafish embryos [2]; 1 μM,0%
same,Dysmorphogenic embryos,zebrafish embryos [2]; 1 μM,0%
same,Morphological score,zebrafish embryos [2]; 1 μM,36.0 ± 0.0
same,Frequency of dysmorphogenesis: Cardiac oedema,zebrafish embryos [2]; 6µM,3.3%
same,Lethality,zebrafish embryos [2]; 6 μM,0%
same,Dysmorphogenic embryos,zebrafish embryos [2]; 6 μM,3.3%
same,Morphological score,zebrafish embryos [2]; 6 μM,35.7 ± 0.9
same,Frequency of dysmorphogenesis: Cardiac oedema,zebrafish embryos [2]; 12 µM,10%
same,Lethality,zebrafish embryos [2]; 12 μM,0%
same,Dysmorphogenic embryos,zebrafish embryos [2]; 12 μM,10%
same,Morphological score,zebrafish embryos [2]; 12 μM,35.5 ± 0.6
same,Frequency of dysmorphogenesis: Brain necrosis,zebrafish embryos [2]; 25µM,100%
same,Frequency of dysmorphogenesis: Cardiac oedema,zebrafish embryos [2]; 25µM,100%
same,Frequency of dysmorphogenesis: Developmental delay,zebrafish embryos [2]; 25µM,100%
same,Frequency of dysmorphogenesis: Eye pigmentation,zebrafish embryos [2]; 25µM,100%
same,Frequency of dysmorphogenesis: Head-body pigmentation,zebrafish embryos [2]; 25µM,100%
same,Frequency of dysmorphogenesis: Movement,zebrafish embryos [2]; 25µM,100%
same,Lethality,zebrafish embryos [2]; 25 μM,13%
same,Dysmorphogenic embryos,zebrafish embryos [2]; 25 μM,100% and 100 ^* %
same,Morphological score,zebrafish embryos [2]; 25 μM,18.0 ± 0.0
same,Lethality,zebrafish embryos [2]; 50 μM,100% and 100 ^* %
same,ZFET LOAEC dysmorphogenesis,zebrafish embryos [2],25 µM
same,ZFET LOAEC lethality,zebrafish embryos [2],50 µM
same,"postWEC LOAEC, in vitro literature",rat whole embryo culture,17.7 [16] μM
same,"ZFET LOAEC, in vitro literature",zebrafish embryos [3]; ref 19,Non observed adverse effects
same,"ZFET LOAEC, in vitro literature",zebrafish embryos [3]; ref 20,6.8 µM
same,Plasma concentrations at teratogenic doses,[4]; reviewed and transformed to μM by 16,12.8 ([47]; reviewed and transformed to μM by [16])
